Experiments:
Peregrin (Homo sapiens) = molecular target: T1, Peregrin (Homo sapiens) (UniProt P55201); test: Binding affinity to […] (unknown origin) assessed as change in entropy TdeltaS at 17 uM by Isothermal titration calorimetry
T1 sequence (whole entry): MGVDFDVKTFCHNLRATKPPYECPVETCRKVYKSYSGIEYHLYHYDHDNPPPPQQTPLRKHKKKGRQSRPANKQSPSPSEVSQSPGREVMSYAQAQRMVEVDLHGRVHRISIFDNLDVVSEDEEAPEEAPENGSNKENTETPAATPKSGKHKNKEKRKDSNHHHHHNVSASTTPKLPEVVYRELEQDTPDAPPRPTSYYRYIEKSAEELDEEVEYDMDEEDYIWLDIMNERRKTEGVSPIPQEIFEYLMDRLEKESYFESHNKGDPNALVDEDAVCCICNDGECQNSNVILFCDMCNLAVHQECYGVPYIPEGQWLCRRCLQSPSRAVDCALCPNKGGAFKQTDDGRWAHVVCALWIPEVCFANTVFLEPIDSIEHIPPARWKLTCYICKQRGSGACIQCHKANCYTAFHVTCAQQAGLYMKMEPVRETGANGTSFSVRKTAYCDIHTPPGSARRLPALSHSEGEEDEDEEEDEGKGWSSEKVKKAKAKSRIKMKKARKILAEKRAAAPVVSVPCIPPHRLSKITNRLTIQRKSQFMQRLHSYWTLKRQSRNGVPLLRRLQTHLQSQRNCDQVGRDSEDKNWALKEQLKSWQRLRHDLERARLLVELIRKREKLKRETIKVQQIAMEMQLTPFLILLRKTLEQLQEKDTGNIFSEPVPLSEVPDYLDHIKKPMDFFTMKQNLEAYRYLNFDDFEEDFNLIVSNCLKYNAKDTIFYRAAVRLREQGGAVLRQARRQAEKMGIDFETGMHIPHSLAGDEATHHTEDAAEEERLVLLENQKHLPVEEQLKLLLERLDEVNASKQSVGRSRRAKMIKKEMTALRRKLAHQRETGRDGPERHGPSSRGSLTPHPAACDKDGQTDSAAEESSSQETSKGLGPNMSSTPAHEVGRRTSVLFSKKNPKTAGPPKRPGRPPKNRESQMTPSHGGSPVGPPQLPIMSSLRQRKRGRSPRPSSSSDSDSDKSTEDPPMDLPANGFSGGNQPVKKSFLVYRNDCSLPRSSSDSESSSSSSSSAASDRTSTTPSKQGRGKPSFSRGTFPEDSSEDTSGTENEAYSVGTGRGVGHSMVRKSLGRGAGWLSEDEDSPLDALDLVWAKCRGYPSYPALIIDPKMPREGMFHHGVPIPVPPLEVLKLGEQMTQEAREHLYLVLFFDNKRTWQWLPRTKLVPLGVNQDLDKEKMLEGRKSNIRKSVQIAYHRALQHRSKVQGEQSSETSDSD

[1] = molecular target: T2, Bromodomain-containing protein 1 (Homo sapiens) (UniProt O95696); test: Binding affinity to BRPF2 (unknown origin) assessed as change in entropy TdeltaS at 12 uM by Isothermal titration calorimetry
T2 sequence (whole entry): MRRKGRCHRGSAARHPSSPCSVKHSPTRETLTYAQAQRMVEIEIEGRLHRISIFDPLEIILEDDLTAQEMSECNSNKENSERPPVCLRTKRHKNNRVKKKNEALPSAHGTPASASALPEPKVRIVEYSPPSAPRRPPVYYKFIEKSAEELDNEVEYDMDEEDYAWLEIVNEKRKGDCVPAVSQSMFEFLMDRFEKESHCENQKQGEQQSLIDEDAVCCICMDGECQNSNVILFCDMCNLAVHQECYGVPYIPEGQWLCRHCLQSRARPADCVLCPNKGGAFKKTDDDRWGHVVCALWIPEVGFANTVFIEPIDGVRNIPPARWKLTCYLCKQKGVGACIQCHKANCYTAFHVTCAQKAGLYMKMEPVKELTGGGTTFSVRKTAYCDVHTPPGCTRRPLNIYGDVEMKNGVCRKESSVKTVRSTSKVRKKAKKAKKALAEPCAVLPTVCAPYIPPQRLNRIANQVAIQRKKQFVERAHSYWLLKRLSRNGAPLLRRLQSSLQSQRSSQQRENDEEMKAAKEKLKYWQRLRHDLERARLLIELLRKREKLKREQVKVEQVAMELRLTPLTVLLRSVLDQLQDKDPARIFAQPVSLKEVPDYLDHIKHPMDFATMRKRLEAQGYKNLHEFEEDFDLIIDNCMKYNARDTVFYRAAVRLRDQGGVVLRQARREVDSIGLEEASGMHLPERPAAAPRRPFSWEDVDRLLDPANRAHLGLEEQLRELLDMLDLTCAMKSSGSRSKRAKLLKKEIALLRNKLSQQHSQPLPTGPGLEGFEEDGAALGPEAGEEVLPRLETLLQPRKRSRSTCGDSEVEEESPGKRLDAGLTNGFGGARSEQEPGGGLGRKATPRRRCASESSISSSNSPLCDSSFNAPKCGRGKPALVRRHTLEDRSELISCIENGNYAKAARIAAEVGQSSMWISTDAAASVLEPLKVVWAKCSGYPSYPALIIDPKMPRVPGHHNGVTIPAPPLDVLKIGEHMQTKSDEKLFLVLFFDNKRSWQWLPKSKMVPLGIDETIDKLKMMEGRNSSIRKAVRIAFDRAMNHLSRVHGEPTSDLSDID

[2] = molecular target: Bromodomain-containing protein 4 (Homo sapiens) (UniProt O60885); test: Binding affinity to BRD4 BD1 (unknown origin) assessed as change in gibbs free energy at 14 uM by Isothermal titration calorimetry
[3] = molecular target: Adenosine receptor A1 (Homo sapiens) (UniProt P30542); test: Binding affinity to A1 receptor (unknown origin) assessed as specific binding at 10 uM relative to control
Adenosine receptor A1 (Homo sapiens), sequence (P30542 whole entry, the tested form may be a part): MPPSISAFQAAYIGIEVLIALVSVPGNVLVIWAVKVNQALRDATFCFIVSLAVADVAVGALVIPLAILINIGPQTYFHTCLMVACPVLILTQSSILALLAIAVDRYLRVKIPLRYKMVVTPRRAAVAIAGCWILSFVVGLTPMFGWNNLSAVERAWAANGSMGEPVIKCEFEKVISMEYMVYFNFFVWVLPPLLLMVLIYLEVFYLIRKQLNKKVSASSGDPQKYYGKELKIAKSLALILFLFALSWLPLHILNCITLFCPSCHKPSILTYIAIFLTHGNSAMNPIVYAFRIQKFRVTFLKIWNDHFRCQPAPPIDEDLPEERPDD

[4] = molecular target: ATPase family AAA domain-containing protein 2 (Homo sapiens) (UniProt Q6PL18); conditions: dose 10.0 µM
ATPase family AAA domain-containing protein 2 (Homo sapiens), sequence (Q6PL18 whole entry, the tested form may be a part): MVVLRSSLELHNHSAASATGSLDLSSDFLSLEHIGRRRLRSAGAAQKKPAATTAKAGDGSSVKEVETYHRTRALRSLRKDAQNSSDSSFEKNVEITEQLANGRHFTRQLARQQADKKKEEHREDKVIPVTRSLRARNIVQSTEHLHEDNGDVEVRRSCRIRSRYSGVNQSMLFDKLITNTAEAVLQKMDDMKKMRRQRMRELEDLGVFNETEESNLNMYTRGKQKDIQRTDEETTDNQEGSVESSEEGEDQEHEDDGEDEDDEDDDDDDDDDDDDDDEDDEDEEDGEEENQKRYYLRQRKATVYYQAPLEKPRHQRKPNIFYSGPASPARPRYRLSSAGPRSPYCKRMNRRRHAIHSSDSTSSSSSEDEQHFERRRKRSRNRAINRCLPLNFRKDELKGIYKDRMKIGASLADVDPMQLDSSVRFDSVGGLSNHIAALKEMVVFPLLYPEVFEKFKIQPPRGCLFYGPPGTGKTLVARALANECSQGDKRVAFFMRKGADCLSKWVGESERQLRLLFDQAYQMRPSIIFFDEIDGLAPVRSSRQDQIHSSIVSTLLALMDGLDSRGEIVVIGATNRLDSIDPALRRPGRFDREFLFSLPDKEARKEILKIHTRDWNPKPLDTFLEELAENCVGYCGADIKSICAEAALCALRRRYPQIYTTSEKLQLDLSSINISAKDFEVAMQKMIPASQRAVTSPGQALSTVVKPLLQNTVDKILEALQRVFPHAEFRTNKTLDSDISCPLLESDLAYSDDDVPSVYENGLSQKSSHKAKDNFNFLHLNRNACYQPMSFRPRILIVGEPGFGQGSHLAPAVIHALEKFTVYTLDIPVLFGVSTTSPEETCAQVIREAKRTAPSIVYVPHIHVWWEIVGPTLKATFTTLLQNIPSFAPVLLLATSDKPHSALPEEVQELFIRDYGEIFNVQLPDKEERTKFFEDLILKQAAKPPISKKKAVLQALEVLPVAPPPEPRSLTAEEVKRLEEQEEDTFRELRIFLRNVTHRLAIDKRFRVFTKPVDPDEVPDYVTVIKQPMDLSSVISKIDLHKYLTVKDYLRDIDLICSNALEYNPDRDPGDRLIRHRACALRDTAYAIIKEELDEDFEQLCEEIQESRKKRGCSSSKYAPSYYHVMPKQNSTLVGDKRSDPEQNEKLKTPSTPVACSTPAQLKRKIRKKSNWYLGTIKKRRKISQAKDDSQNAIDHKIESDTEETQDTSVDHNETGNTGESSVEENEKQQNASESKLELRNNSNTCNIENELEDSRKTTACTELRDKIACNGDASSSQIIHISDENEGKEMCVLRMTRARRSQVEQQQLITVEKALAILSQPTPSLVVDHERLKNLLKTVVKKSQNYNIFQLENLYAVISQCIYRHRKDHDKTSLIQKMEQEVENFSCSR

[5] = molecular target: Bromodomain-containing protein 3 (Homo sapiens) (UniProt Q15059); conditions: dose 10.0 µM
Bromodomain-containing protein 3 (Homo sapiens), sequence (Q15059 2-726 limits assumed): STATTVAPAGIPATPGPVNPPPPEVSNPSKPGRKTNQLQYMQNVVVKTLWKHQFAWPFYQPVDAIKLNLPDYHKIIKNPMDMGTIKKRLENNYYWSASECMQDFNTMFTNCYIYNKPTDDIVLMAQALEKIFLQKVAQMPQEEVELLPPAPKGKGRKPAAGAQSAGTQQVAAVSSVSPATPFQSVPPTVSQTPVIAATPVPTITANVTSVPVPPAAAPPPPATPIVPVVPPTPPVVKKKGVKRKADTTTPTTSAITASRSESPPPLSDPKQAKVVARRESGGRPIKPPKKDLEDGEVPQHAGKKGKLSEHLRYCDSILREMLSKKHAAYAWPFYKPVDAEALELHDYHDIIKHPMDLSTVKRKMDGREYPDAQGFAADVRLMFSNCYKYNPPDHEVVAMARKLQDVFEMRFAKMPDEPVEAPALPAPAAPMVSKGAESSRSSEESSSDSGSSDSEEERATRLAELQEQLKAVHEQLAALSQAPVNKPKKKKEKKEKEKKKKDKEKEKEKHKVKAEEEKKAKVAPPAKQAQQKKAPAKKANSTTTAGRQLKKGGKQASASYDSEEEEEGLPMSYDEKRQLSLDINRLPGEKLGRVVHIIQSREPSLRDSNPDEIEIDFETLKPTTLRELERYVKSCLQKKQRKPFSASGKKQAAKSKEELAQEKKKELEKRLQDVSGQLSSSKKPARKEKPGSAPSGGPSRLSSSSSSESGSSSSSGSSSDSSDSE

[6] = molecular target: Bromodomain-containing protein 4 (Homo sapiens) (UniProt O60885); conditions: dose 10.0 µM
[7] = molecular target: Bromodomain-containing protein 4 (Homo sapiens) (UniProt O60885); conditions: dose 10.0 µM; remark: listed apart in the source
[8] = molecular target: T2, Bromodomain-containing protein 1 (Homo sapiens); conditions: dose 10.0 µM
[9] = molecular target: Chromatin remodeling regulator CECR2 (Homo sapiens) (UniProt Q9BXF3); conditions: dose 10.0 µM
Homo sapiens = organism: Homo sapiens; conditions: dose 10.0 µM
[10] = molecular target: Transcription initiation factor TFIID subunit 1-like (Homo sapiens) (UniProt Q8IZX4); conditions: dose 10.0 µM
[11] = molecular target: Transcription intermediary factor 1-beta (Homo sapiens) (UniProt Q13263); conditions: dose 10.0 µM
[12] = molecular target: Bromodomain and WD repeat-containing protein 1 (Homo sapiens) (UniProt Q9NSI6); conditions: dose 10.0 µM
Bromodomain and WD repeat-containing protein 1 (Homo sapiens), sequence (Q9NSI6 whole entry): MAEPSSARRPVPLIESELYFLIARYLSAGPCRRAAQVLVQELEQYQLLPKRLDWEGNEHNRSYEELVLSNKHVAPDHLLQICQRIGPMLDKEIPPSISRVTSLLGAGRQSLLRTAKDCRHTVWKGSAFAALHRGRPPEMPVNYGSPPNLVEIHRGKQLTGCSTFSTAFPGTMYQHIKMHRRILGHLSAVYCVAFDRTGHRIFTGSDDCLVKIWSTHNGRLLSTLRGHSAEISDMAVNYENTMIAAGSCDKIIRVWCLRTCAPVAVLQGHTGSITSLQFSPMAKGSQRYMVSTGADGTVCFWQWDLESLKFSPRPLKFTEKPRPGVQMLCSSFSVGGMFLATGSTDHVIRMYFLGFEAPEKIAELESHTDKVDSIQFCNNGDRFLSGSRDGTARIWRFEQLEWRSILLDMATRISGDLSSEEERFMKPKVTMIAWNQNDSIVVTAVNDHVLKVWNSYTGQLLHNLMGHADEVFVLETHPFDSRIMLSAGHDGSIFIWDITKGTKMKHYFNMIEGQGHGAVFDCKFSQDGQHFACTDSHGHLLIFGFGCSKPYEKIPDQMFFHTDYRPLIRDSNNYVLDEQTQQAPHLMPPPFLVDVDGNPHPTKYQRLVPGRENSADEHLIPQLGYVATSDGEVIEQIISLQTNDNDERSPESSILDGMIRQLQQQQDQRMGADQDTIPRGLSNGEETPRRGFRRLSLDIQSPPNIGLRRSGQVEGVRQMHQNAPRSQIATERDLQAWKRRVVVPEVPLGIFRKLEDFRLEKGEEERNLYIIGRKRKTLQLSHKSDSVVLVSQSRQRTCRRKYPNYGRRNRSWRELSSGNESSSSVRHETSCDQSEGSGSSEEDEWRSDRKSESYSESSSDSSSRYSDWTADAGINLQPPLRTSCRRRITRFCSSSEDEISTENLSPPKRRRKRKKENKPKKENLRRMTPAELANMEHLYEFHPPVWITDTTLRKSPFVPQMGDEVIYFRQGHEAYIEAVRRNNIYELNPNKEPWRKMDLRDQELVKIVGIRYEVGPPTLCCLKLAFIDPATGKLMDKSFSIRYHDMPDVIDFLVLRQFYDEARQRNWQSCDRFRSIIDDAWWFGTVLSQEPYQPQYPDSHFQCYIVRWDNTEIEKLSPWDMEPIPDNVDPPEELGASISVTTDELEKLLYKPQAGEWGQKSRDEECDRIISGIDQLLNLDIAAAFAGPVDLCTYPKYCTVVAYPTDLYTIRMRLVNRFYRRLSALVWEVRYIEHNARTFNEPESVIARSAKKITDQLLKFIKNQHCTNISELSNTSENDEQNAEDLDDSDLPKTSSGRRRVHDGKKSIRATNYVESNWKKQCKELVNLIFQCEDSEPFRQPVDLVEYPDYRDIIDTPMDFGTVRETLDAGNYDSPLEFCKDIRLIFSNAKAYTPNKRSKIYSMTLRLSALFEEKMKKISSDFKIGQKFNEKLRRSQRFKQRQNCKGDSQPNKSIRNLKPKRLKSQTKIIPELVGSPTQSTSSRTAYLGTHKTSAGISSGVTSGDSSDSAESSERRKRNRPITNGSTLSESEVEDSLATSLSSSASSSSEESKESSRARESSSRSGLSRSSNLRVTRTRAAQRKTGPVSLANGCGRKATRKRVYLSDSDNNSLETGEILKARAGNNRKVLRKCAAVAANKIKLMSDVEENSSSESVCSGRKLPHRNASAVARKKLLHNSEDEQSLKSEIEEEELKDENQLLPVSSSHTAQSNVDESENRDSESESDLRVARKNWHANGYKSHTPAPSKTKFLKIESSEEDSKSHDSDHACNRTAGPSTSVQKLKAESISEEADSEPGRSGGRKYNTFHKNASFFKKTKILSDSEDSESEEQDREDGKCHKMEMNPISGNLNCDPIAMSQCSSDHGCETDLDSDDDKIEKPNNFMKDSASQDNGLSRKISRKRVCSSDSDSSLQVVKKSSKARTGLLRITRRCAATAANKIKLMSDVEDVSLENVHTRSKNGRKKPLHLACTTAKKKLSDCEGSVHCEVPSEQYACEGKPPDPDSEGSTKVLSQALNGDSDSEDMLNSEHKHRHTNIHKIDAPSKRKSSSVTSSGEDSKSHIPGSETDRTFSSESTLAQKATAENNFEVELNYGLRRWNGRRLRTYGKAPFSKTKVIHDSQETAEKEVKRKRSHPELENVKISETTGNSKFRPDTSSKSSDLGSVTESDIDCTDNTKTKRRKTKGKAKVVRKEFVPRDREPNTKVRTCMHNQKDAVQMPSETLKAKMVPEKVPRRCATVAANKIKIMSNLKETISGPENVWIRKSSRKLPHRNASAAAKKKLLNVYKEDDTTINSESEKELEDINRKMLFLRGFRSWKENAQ

COc1cc2c(cc1NS(=O)(=O)c1ccc(Br)cc1C)n(C)c(=O)n2C
TdeltaS (Peregrin (Homo sapiens)): -3.34 kcal/mol | TdeltaS [1]: -1.2 kcal/mol | deltaG [2]: -7.13 kcal/mol | Activity [3]: 19.8% | ΔTm [4]: 0.14 °C | ΔTm [5]: 1.6 °C | ΔTm [6]: 2 °C | ΔTm [7]: 0.6 °C | ΔTm [8]: 3.1 °C | ΔTm [9]: 0.1 °C | ΔTm (Homo sapiens): 0.2 °C | ΔTm [10]: 0.3 °C | ΔTm [11]: 0.2 °C | ΔTm [12]: 1 °C

Source: ChEMBL document CHEMBL5715956, “Selective Targeting of Bromodomains of the Bromodomain-PHD Fingers Family Impairs Osteoclast Differentiation” (ACS Chem Biol, 2017)
